Data from US20090124680A1, “USE OF PRODRUG COMPOSITION CONTAINING NAPHTHOQUINONE-BASED COMPOUND FOR MANUFACTURE OF MEDICAMENT FOR TREATMENT OR PREVENTION OF DISEASES INVOLVING METABOLIC SYNDROME” (Mazence Inc., priority 2007, published 2009).

Legend:
[1] = Weight loss effects in obese mice: body weight, body weight gain and food intake; type: in vivo, C57BL/6 male mice; details: high-fat diet mice; oral, 28 days; Example 14 195 mg/kg, Example 5 65 mg/kg; compared to control group; FIGS. 1 and 2
Description: (§1) 4-week-old C57BL/6 male mice were purchased from Orient BIO Inc. (Korea). Animals were raised for 10 weeks in a breeding room maintained at a temperature of 23° C., 55% humidity, illumination of 300 to 500 lux, a 12-h light/dark (L/D) cycle, and ventilation of 10 to 18 times/hr. Experiments included animals weighing […] or higher. Animals were fed ad libitum a high-fat diet (45 kcal % from fat, D12451, Research Diet) and tap water as drinking water.
(§2) Each group of animals was administered 195 mg/kg of the prodrug compound of Example 14 (hereinafter often simply referred to as “A31”) and 65 mg/kg of the prodrug compound of Example 5 (hereinafter often simply referred to as “A32”) for 4 weeks, as set forth in Table 1 below. Observations were made on changes in body weight and food intake, with respect to a time course of administration. After administration was complete, biochemical indices were assayed including changes in adipose tissue distribution, hepatic functions, and lipid and enzyme levels.

[2] = Biochemical indices in the blood of C57BL/6 mice after administration; type: in vivo; details: oral, 28 days; Example 14 195 mg/kg, Example 5 65 mg/kg; compared to control group; FIG. 4
Description: as §1, §2
FIGS. 4 and 5 show changes of biochemical indices in the blood of C57BL/6 mice to which the prodrug composition of Example 5 and the prodrug composition of Example 14 were administered.

Molecule: 10,11-diacetoxy-2,6,6-trimethyl-1,2,6,7,8,9-hexahydro-phenanthro[1,2b]furan [Example 14]
- body weight (g) [1]: significant reductions
- body weight gain (%) [1]: significant reductions
- blood levels of GOT/GTP enzymes [2]: decreased

Molecule: CC(=O)Oc1c2c(c3ccccc3c1OC(C)=O)OC(C)(C)CC2 [Example 5, 5,6-diacetoxy-2,2-dimethyl-3,4-dihydro-2H-benzo[h]chromene]
- body weight (g) [1]: excellent weight-loss effects
- body weight gain (%) [1]: negative (−) value
- blood levels of GOT/GTP enzymes [2]: decreased
